Measurements from US4428936A, “Antibacterial composition for medical use” (Toyama Chemical Co., Ltd., priority 1978, dated 1984).

Key:
[1] = tested on: Klebsiella pneumoniae Y-4; test: Minimum inhibitory concentration; assay type: cell-based; settings: Y4; Klebsiella pneumoniae Y-4 strain
Method: (§1) The minimum inhibitory concentration of T-1551 Na or Methicillin sodium against Escherichia coli TK-3 strain or Kleosiella pneumoniae Y-4 strain was greater than 800 μg/ml in each case.

Escherichia coli TK-3 [2] = test: Minimum inhibitory concentration; assay type: cell-based; settings: TK3; Escherichia coli TK-3 strain
Method: as §1

[3] = tested on: Klebsiella pneumoniae GN 69; test: Growth-inhibition test with potassium clavulanate; assay type: cell-based; parameters: key: (+) means that the test bacterium grew; (-) means that the test bacterium did not grow; settings: potassium clavulanate 100,25,6.25,1.6,0.4,0 μg/ml
Method: (§2) Heart Infusion agar containing a prescribed amount of Methicillin sodium or T-1551 Na was inoculated with the test bacterium at a rate of about 10^8 cells/ml. After incubation for 18 hours at 37° C., the growth of the test bacterium was inspected.
(§3) The same operation as in Test Example 1 was repeated, except that the Methicillin sodium was replaced by potassium clavulanate and the test bacteria were replaced by those shown in Tables 6, 7 and 8, to obtain the results shown in Tables 6, 7 and 8.

[4] = tested on: Pseudomonas aeruginosa GN 3345; test: Growth-inhibition test with potassium clavulanate; assay type: cell-based; parameters: key: (+) means that the test bacterium grew; (-) means that the test bacterium did not grow; settings: potassium clavulanate by line b219-b229: 100,(unlabelled),25,(unlabelled),12.5,(unlabelled),3.1,(unlabelled),0.4,(unlabelled),0 μg/ml
Method: as §2, §3

Escherichia coli GN 6299 = test: Growth-inhibition test with potassium clavulanate; assay type: cell-based; parameters: key: (+) means that the test bacterium grew; (-) means that the test bacterium did not grow; settings: potassium clavulanate by line b171,b173-b182: 100,(unlabelled),25,(unlabelled),6.25,(unlabelled),1.6,(unlabelled),0.4,(unlabelled),0 μg/ml
Method: as §2, §3

K. pneumoniae Y-4 = test: Effect of combined use on experimental infection in mice (protection); assay type: in vivo, mice (ICR strain) infected with K. pneumoniae; settings: challenge dose 5.7 × 10^7 cells/mouse, peritoneal; subcutaneous administration one and two hours after inoculation
Text: (§4) Male mice (5 mice per group) of the ICR strain, 4 weeks of age, were peritoneally inoculated with the prescribed number of pathogenic bacteria suspended in 5% mucin. After one hour and two hours following the inoculation, test preparations shown in Table 5 were subcuataneously administered to examine the protection effect.

K. pneumoniae Y-53 = test: as above; assay type: in vivo, mice (ICR strain) infected with K. pneumoniae; settings: challenge dose 1.0 × 10^7 cells/mouse, peritoneal; subcutaneous administration one and two hours after inoculation
Text: as §4

[5] = tested on: Pseudomonas aeruginosa S-111; test: Growth-inhibition test on clinically isolated strain (agar, about 10^8 cells/ml); assay type: cell-based; parameters: key: (+) means that the test bacterium grew; (-) means that the test bacterium did not grow; settings: Methicillin sodium 3200,1600,800,400,200,100,50,25,12.5,0 μg/ml, 18 hours, 37° C
Method: as §2

[6] = tested on: Klebsiella pneumoniae Y-4; test: as above; assay type: cell-based; parameters: key: (+) means that the test bacterium grew; (-) means that the test bacterium did not grow; settings: Methicillin sodium: 3200,1600,800,400,200,100,50,25,12.5,0 μg/ml, 18 hours, 37° C
Method: as §2

Escherichia coli TK-3 [7] = test: as above; assay type: cell-based; parameters: key: (+) means that the test bacterium grew; (-) means that the test bacterium did not grow; settings: Methicillin sodium: 3200,1600,800,400,200,100,50,25,12.5,0 μg/ml, 18 hours, 37° C
Method: as §2

[8] = T-1551 Na unlabelled column between 12.5 and 3.1 μg/ml
[9] = T-1551 Na unlabelled column between 50 and 12.5 μg/ml
[10] = T-1551 Na unlabelled column between 200 and 50 μg/ml
[11] = T-1551 Na unlabelled column between 800 and 200 μg/ml

Which results are given for `CCN1CCN(C(=O)N[C@@H](C(=O)N[C@@H]2C(=O)N3C(C(=O)O)=C(CSc4nnnn4C)CS[C@H]23)c2ccc(O)cc2)C(=O)C1=O` [T-1551 Na, sodium 7-[D(-)-α-(4-ethyl-2,3-dioxo-1-piperazinylcarbonylamino)-p-hydroxyphenylacetamide]-3-[5-(1-methyl-1,2,3,4-tetrazolyl)thiomethyl]-Δ^3-cephem-4-carboxylate]?
MIC [1]: > 800 µg/mL; MIC (Escherichia coli TK-3 [2]): > 800 µg/mL; growth of the test bacterium ([3]; T-1551 Na 0.2 μg/ml): +; growth of the test bacterium ([3]; T-1551 Na 0.8 μg/ml): +; growth of the test bacterium ([3]; T-1551 Na 3.1 μg/ml): +; growth of the test bacterium ([3]; T-1551 Na 12.5 μg/ml): +; growth of the test bacterium ([3]; T-1551 Na 50 μg/ml): +; growth of the test bacterium ([3]; T-1551 Na 200 μg/ml): +; growth of the test bacterium ([3]; T-1551 Na 800 μg/ml): -; growth of the test bacterium ([4]; T-1551 Na 3.1 μg/ml): +; growth of the test bacterium ([4]; T-1551 Na 12.5 μg/ml): +; growth of the test bacterium ([4]; T-1551 Na 50 μg/ml): +; growth of the test bacterium ([4]; T-1551 Na 200 μg/ml): +; growth of the test bacterium ([4]; T-1551 Na 800 μg/ml): -; growth of the test bacterium [4, 8]: +; growth of the test bacterium [4, 9]: +; growth of the test bacterium [4, 10]: +; growth of the test bacterium [4, 11]: -; growth of the test bacterium (Escherichia coli GN 6299; T-1551 Na 0.2 μg/ml): +; growth of the test bacterium (Escherichia coli GN 6299; T-1551 Na 0.8 μg/ml): +; growth of the test bacterium (Escherichia coli GN 6299; T-1551 Na 3.1 μg/ml): +; growth of the test bacterium (Escherichia coli GN 6299; T-1551 Na 12.5 μg/ml): +; growth of the test bacterium (Escherichia coli GN 6299; T-1551 Na 50 μg/ml): +; growth of the test bacterium (Escherichia coli GN 6299; T-1551 Na 200 μg/ml): +; growth of the test bacterium (Escherichia coli GN 6299; T-1551 Na 800 μg/ml): +; growth of the test bacterium (Escherichia coli GN 6299; T-1551 Na unlabelled column between 0.8 and 0.2 μg/ml): +; growth of the test bacterium (Escherichia coli GN 6299; T-1551 Na unlabelled column between 3.1 and 0.8 μg/ml): +; growth of the test bacterium (Escherichia coli GN 6299; [8]): +; growth of the test bacterium (Escherichia coli GN 6299; [9]): +; growth of the test bacterium (Escherichia coli GN 6299; [10]): +; growth of the test bacterium (Escherichia coli GN 6299; [11]): +; ED50 (protection effect) (K. pneumoniae Y-4): > 26.8 mg/mouse; ED50 (protection effect) (K. pneumoniae Y-53): > 10.0 mg/mouse; growth of the test bacterium ([5]; T-1551 Na 0.78 μg/ml): +; growth of the test bacterium ([5]; T-1551 Na 1.56 μg/ml): +; growth of the test bacterium ([5]; T-1551 Na 3.13 μg/ml): +; growth of the test bacterium ([5]; T-1551 Na 6.25 μg/ml): +; growth of the test bacterium ([5]; T-1551 Na 12.5 μg/ml): +; growth of the test bacterium ([5]; T-1551 Na 25 μg/ml): +; growth of the test bacterium ([5]; T-1551 Na 50 μg/ml): +; growth of the test bacterium ([5]; T-1551 Na 100 μg/ml): +; growth of the test bacterium ([5]; T-1551 Na 200 μg/ml): +; growth of the test bacterium ([6]; T-1551 Na 0.78 μg/ml): +; growth of the test bacterium ([6]; T-1551 Na 1.56 μg/ml): +; growth of the test bacterium ([6]; T-1551 Na 3.13 μg/ml): +; growth of the test bacterium ([6]; T-1551 Na 6.25 μg/ml): +; growth of the test bacterium ([6]; T-1551 Na 12.5 μg/ml): +; growth of the test bacterium ([6]; T-1551 Na 25 μg/ml): +; growth of the test bacterium ([6]; T-1551 Na 50 μg/ml): +; growth of the test bacterium ([6]; T-1551 Na 100 μg/ml): +; growth of the test bacterium ([6]; T-1551 Na 200 μg/ml): +; growth of the test bacterium (Escherichia coli TK-3 [7]; T-1551 Na 0.78 μg/ml): +; growth of the test bacterium (Escherichia coli TK-3 [7]; T-1551 Na 1.56 μg/ml): +; growth of the test bacterium (Escherichia coli TK-3 [7]; T-1551 Na 3.13 μg/ml): +; growth of the test bacterium (Escherichia coli TK-3 [7]; T-1551 Na 6.25 μg/ml): +; growth of the test bacterium (Escherichia coli TK-3 [7]; T-1551 Na 12.5 μg/ml): +; growth of the test bacterium (Escherichia coli TK-3 [7]; T-1551 Na 25 μg/ml): +; growth of the test bacterium (Escherichia coli TK-3 [7]; T-1551 Na 50 μg/ml): +; growth of the test bacterium (Escherichia coli TK-3 [7]; T-1551 Na 100 μg/ml): +; growth of the test bacterium (Escherichia coli TK-3 [7]; T-1551 Na 200 μg/ml): +
